Reference: ChEMBL document CHEMBL1136163, “Conformationally-restricted analogues of efflux pump inhibitors that potentiate the activity of levofloxacin in Pseudomonas aeruginosa” (Bioorg Med Chem Lett, 2003)
≈ marks a conversion by molar mass, not a printed value. Where a SMILES comes first, the peptide text is derived from it. The star is where a group is joined. βNA = c1ccc2cc(N*)ccc2c1

Test system: not listed separately
Assay: Clearance measured in rat
Assay type: ADME, organism-based
Conditions: in vivo, read-out: CLfree (converted)

In order of falling clearance:
1. NC[C@@H]1CN[C@@H](C(=O)N[C@H](CCc2ccccc2)C(=O)Nc2ccc3ncccc3c2)C1  48.3 mL/min/kg
2. NCCC[C@@H](N)C(=O)N[C@H](CCc1ccccc1)C(=O)Nc1cnc2ccccc2c1  28.3 mL/min/kg

Test system: Pseudomonas aeruginosa
Assay: In vitro minimum concentration of the efflux pump inhibitor required to inhibit the growth of PAM 1723 a strain of Pseudomonas aeruginosa
Assay type: functional
Conditions: not given

NC[C@@H]1CN[C@@H](C(=O)N[C@H](CCc2ccccc2)C(=O)Nc2cnc3ccccc3c2)C1 and NC[C@@H]1CN[C@@H](C(=O)N[C@H](CCc2ccccc2)C(=O)Nc2ccc3ncccc3c2)C1 cannot be ordered by MIC: > 512 µg/mL for the first, > 512 µg/mL for the second.

NCCC[C@@H](N)C(=O)N[C@H](CCc1ccccc1)C(=O)Nc1cnc2ccccc2c1 and NCCO[C@H]1CN[C@H](C(=O)N[C@H](CCc2ccccc2)C(=O)Nc2cnc3ccccc3c2)C1 cannot be ordered by MIC: > 512 µg/mL for the first, > 512 µg/mL for the second.

Compared with CN(C(=O)[C@@H](N)CCc1ccccc1)[C@@H](CCCN)CSc1nc2ccccc2s1, CN(C(=O)[C@@H](N)Cc1ccccc1)[C@@H](CCCN)C(=O)Nc1ccc2ccccc2c1 is 2-fold higher in MIC: 128 µg/mL (≈ 289 µM) for the first, 256 µg/mL (≈ 612 µM) for the second.

Going from CC(C)(C)c1ccc2ncc(NC(=O)[C@H]3C[C@H](CN)CN3)cc2c1 to CC(C)(C)c1ccc2ncc(NC(=O)CNC(=O)[C@H](N)CCCN)cc2c1, the MIC falls from 128 µg/mL (≈ 392 µM) to 64 µg/mL (≈ 172 µM) (2-fold).

In the case of N=C(N)NCCC[C@H](NC(=O)[C@@H](N)Cc1ccccc1)C(=O)Nc1ccc2ccccc2c1 [PABETAN] (H-Phe-Arg-βNA), the MIC is reported as > 512 µg/mL.

Test system: Pseudomonas aeruginosa
Assay: In vitro minimum concentration of the efflux pump inhibitor required to reduce (potentiate) the MIC of fuoroquinolone levofloxacin 8-fold (LVFX)
Assay type: functional
Conditions: not given

In order of falling MPC:
1. CC(C)C[C@@H](NC(=O)[C@H](N)CCCN)C(=O)Nc1cnc2ccccc2c1  20 µg/mL
2. NCCC[C@@H](N)C(=O)N[C@H](CCc1ccccc1)C(=O)Nc1cnc2ccccc2c1  10 µg/mL
3. NC[C@@H]1CN[C@@H](C(=O)N[C@H](CCc2ccccc2)C(=O)Nc2ccc3ncccc3c2)C1  10 µg/mL
4. NCCO[C@H]1CN[C@H](C(=O)N[C@H](CCc2ccccc2)C(=O)Nc2cnc3ccccc3c2)C1  10 µg/mL
5. N=C(N)NCCC[C@H](NC(=O)[C@@H](N)Cc1ccccc1)C(=O)Nc1ccc2ccccc2c1 [PABETAN] (H-Phe-Arg-βNA)  10 µg/mL
6. NC[C@@H]1CN[C@@H](C(=O)N[C@H](CCc2ccccc2)C(=O)Nc2cnc3ccccc3c2)C1  5 µg/mL
7. CN(C(=O)[C@@H](N)CCc1ccccc1)[C@@H](CCCN)CSc1nc2ccccc2s1  5 µg/mL
8. CC(C)(C)c1ccc2ncc(NC(=O)[C@H]3C[C@H](CN)CN3)cc2c1  5 µg/mL
9. CN(C(=O)[C@@H](N)Cc1ccccc1)[C@@H](CCCN)C(=O)Nc1ccc2ccccc2c1  5 µg/mL
10. CC(C)(C)c1ccc2ncc(NC(=O)CNC(=O)[C@H](N)CCCN)cc2c1  5 µg/mL

With C[C@H](N)C(=O)N[C@H](CCc1ccccc1)C(=O)Nc1cnc2ccccc2c1 the MPC was >40 µg/mL.

Test system: not listed separately
Assay: In vivo minimum lethal dose causing lethality to >/=66% of the mice tested i.p.
Assay type: ADME, organism-based
Conditions: mouse, ip

In order of rising MLD:
1. NCCC[C@@H](N)C(=O)N[C@H](CCc1ccccc1)C(=O)Nc1cnc2ccccc2c1  200 mg/kg
2. CC(C)C[C@@H](NC(=O)[C@H](N)CCCN)C(=O)Nc1cnc2ccccc2c1  300 mg/kg

Test system: not listed separately
Assay: In vivo minimum lethal dose causing lethality to >/=66% of the mice tested i.v.
Assay type: ADME, organism-based
Conditions: mouse, iv

In order of rising MLD:
1. CN(C(=O)[C@@H](N)CCc1ccccc1)[C@@H](CCCN)CSc1nc2ccccc2s1  25 mg/kg
2. CC(C)(C)c1ccc2ncc(NC(=O)CNC(=O)[C@H](N)CCCN)cc2c1  35 mg/kg
3. NC[C@@H]1CN[C@@H](C(=O)N[C@H](CCc2ccccc2)C(=O)Nc2cnc3ccccc3c2)C1  50 mg/kg
4. CC(C)C[C@@H](NC(=O)[C@H](N)CCCN)C(=O)Nc1cnc2ccccc2c1  50 mg/kg
5. NCCO[C@H]1CN[C@H](C(=O)N[C@H](CCc2ccccc2)C(=O)Nc2cnc3ccccc3c2)C1  70 mg/kg
6. C[C@H](N)C(=O)N[C@H](CCc1ccccc1)C(=O)Nc1cnc2ccccc2c1  125 mg/kg

With NCCC[C@@H](N)C(=O)N[C@H](CCc1ccccc1)C(=O)Nc1cnc2ccccc2c1 the MLD was < 25 mg/kg.
In the case of CC(C)(C)c1ccc2ncc(NC(=O)[C@H]3C[C@H](CN)CN3)cc2c1, the MLD is reported as > 150 mg/kg.
For NC[C@@H]1CN[C@@H](C(=O)N[C@H](CCc2ccccc2)C(=O)Nc2ccc3ncccc3c2)C1, the MLD was > 100 mg/kg.
In the case of CN(C(=O)[C@@H](N)Cc1ccccc1)[C@@H](CCCN)C(=O)Nc1ccc2ccccc2c1, the MLD is reported as < 25 mg/kg.
For C[C@H]1COc2c(N3CCN(C)CC3)c(F)cc3c(=O)c(C(=O)O)cn1c23.C[C@H]1COc2c(N3CCN(C)CC3)c(F)cc3c(=O)c(C(=O)O)cn1c23.O [LEVOFLOXACIN], the MLD was > 100 mg/kg.
For N=C(N)NCCC[C@H](NC(=O)[C@@H](N)Cc1ccccc1)C(=O)Nc1ccc2ccccc2c1 [PABETAN] (H-Phe-Arg-βNA), the MLD was < 25 mg/kg.

Test system: not listed separately
Assay: In vivo toxicity in mice i.v.
Assay type: organism-based
Conditions: mouse, iv

NCCC[C@@H](N)C(=O)N[C@H](CCc1ccccc1)C(=O)Nc1cnc2ccccc2c1 and N=C(N)NCCC[C@H](NC(=O)[C@@H](N)Cc1ccccc1)C(=O)Nc1ccc2ccccc2c1 [PABETAN] (H-Phe-Arg-βNA) cannot be ordered by LD50: < 25 mg/kg for the first, < 25 mg/kg for the second.

For C[C@H]1COc2c(N3CCN(C)CC3)c(F)cc3c(=O)c(C(=O)O)cn1c23.C[C@H]1COc2c(N3CCN(C)CC3)c(F)cc3c(=O)c(C(=O)O)cn1c23.O [LEVOFLOXACIN], the LD50 was > 100 mg/kg.
